Measured values taken from publication PMC5722265, “Leishmanicidal compounds of Nectria pseudotrichia, an endophytic fungus isolated from the plant Caesalpinia echinata (Brazilwood)” (Memórias do Instituto Oswaldo Cruz, 2018).
≈ marks a conversion by molar mass, not a printed value. Where two headings read alike, the source gives them in different places.

Key:
[1] = tested on: L. amazonensis promastigotes; set-up: method as in Brissow et al. 2017; details: ref Brissow et al. 2017; cited from earlier work
Vero cells = assay: Cytotoxicity assay using Vero cells, MTT; type: cell-based, African green monkey; details: for IC50: Chlorocebus sabaeus, Vero, 72 h, read-out: Vero IC50; for selectivity index (SI): IC50 Vero cells/IC50 L. (V.) braziliensis; for toxicity to Vero cells (in words): concentration range tested
Protocol: Cytotoxicity assay using Vero cells - African green monkey kidney cells (Vero) were used as model of normal cells and were provided by Erna Kroon (Federal University of Minas Gerais, Brazil). The cells were maintained in DMEM medium (Sigma-Aldrich), containing 5% FBS (Gibco/Brl), enriched with 1% antibiotic solution (100 IU/mL penicillin and 100 µg/mL streptomycin, Gibco/Brl). Vero cells were inoculated in 96 well plates at 1 × 10^4 cells/well and the plates incubated for 24 h at 37°C. The samples and amphotericin B (positive control) were dissolved in DMSO (Sigma-Aldrich). […] All cell cultures were incubated in a 5% CO2/95% humidified air atmosphere at 37°C for 72 h. Wells with 0.5% v/v DMSO were used as a negative control. All medium and reagents used in the assays were endotoxin free. Cell viability was estimated by measuring the mitochondrial reduction of MTT ([Monks et al. 1991]). The samples were tested in triplicate in two independent experiments. The results were expressed as percentage of viability in relation to the negative control (DMSO, 0.5% v/v), calculated as follows: percentage of cell viability (%) = [(treated mean OD / negative control) x 100] and obtained from two independent experiments performed in triplicate. The IC50 values were calculated by non-linear regression using GraphPad Prism® Version 5.01 software. The selective index (SI) was calculated by dividing IC50 Vero cells/IC50 L. (V.) braziliensis.

[2] = tested on: amastigote forms of L. (V.) braziliensis strain MHOM/BR/75/M2903; set-up: method as in de Morais-Teixeira et al. 2014; details: different time periods of drug exposure (three, five, and seven days); ref de Morais-Teixeira et al. 2014; cited from earlier work
[3] = tested on: intracellular amastigote forms of Leishmania (Viannia) braziliensis; assay: Antileishmanial assay on intracellular amastigotes of L. (V.) braziliensis LUC (firefly luciferase reporter) in THP-1 macrophages; type: cell-based; details: for IC50: Leishmania braziliensis, intracellular amastigotes in THP-1 macrophages, luciferase activity, 72 h; for activity against amastigote forms of L. (V.) braziliensis (in words): L. (V.) braziliensis expressing firefly luciferase
Protocol: Assays with L. (V.) braziliensis - L. (V.) braziliensis (strain MHOM/BR/1994/H3227) promastigotes were maintained in minimum essential culture medium (α-MEM) (Gibco/Brl, Grand Island, NY, USA) supplemented with 10% (v/v) heat inactivated foetal bovine serum (FBS, Cultilab, Campinas, SP, Brazil), […] kanamycin, […] ampicillin, 2 mm L-glutamine, 5 mg/mL hemin, and 5 mm biopterin (Sigma-Aldrich, St. Louis, USA), at pH 7.0 and incubated at 25°C.
For this assay, we used L. (V.) braziliensis LUC expressing firefly luciferase as a reporter gene. The transfection was performed as previously described ([Roy et al. 2000]). Human monocyte-derived macrophage cell line, THP-1, was maintained in RPMI 1640 medium supplemented with 10% FBS and differentiated in the presence of 20 ng/mL phorbol myristate for 72 h at 37°C. Cells were infected with L. (V.) braziliensis LUC promastigotes at a parasite/macrophage ratio of 10:1 for 3 h in a white walled 96-well tissue culture plate. Non-internalised parasites were removed by five washes with HEPES/NaCl buffer (20 mm HEPES, 0.15 M NaCl, 10 mm glucose, pH 7.2). The infected cells were then treated with 1.5-200.0 µg/mL of sample-tests and 0.006-0.8 µM of amphotericin B (positive control). After 72 h, RPMI was aspirated and luciferase activity was assessed by adding 20 µL reconstituted One-Glo™ Luciferase Assay system solution as enzyme substrate, following the manufacturer's instructions (Promega, Madison, WI, USA). Luciferase activity was measured by luminescence detection in a SpectraMax M5 luminometer (Molecular Devices, Sunnyvale, CA, USA) using 1 s integration/well. Non-infected THP-1 macrophages were used as signal background while non-treated infected THP-1 macrophages were used as control for growth comparison. Antileishmanial activity was expressed as the concentration required to inhibit 50% of parasite growth, as calculated by sigmoidal regression analyses using GraphPad Prism (Version 6.0c, GraphPad Software Inc., La Jolla, CA, USA).

THP-1 cells = assay: Toxicity on host THP-1 macrophages, MTT; type: cell-based; details: for IC50: Homo sapiens, read-out: THP-1 IC50; for toxicity to THP-1 cells (in words): concentration range tested
Protocol: To assess toxicity of the compounds on the host cells, THP-1 macrophages were seeded in 96-well plates at a density of 2 × 10^5 cells per well, differentiated in the presence of 20 ng/mL phorbol myristate for 72 h at 37°C, and treated with 1.5-200.0 µg/mL of the compounds or 1.5-200.0 μM of Amphotericin B. After 72 h treatment with compounds, cell death was estimated using MTT, which is metabolised by viable cells resulting in a purple product that can be quantified using a spectrophotometer (absorbance at 570 nm). The results were calculated from the absorbance measurements using the percentage of cell death in relation to the untreated cell controls.

KB cells = tested on: KB cells; set-up: method as in Anderson et al. 1985; details: human mouth epidermoid carcinoma; ref Anderson et al. 1985; cited from earlier work
[4] = tested on: Plasmodium falciparum (3D7); set-up: method as in Calcul et al. 2013; details: at 25 nM; ref Calcul et al. 2013; cited from earlier work
A549 cells = tested on: A549 cells; set-up: method as in Calcul et al. 2013; details: at 25 nM; ref Calcul et al. 2013; cited from earlier work
[5] = tested on: BC-1 human breast cancer cells; set-up: method as in Anderson et al. 1985; details: ref Anderson et al. 1985; cited from earlier work
[6] = tested on: Leishmania promastigotes and intracellular amastigotes in macrophages; set-up: method as in Roy et al. (2014); details: ref Roy et al. (2014); cited from earlier work
[7] = set-up: method as in DrugBank Database, DrugBank Version 5.0; details: Experimental property; ref DrugBank Database, DrugBank Version 5.0; cited from earlier work
tumour xenographs = tested on: tumour xenographs; set-up: method as in Rahier et al. (2015); details: ref Rahier et al. (2015); cited from earlier work

| Molecule | IC50 (Vero cells; MTT) [µM] | IC50 [2] [µM] | IC50 [3] [µM] | IC50 (THP-1 cells; THP-1, MTT, 72 h) [µM] | also measured |
| --- | --- | --- | --- | --- | --- |
| 18-des-hydroxy cytochalasin H | – | – | – | – | IC50, viability of L. amazonensis promastigotes [1]: 9.2 µg/mL |
| C[C@@H]1[C@H](O)[C@@H](C)/C=C/C=C/C=C/C=C/C=C/C=C/C=C/[C@H](O[C@@H]2O[C@H](C)[C@@H](O)[C@H](N)[C@@H]2O)C[C@@H]2O[C@](O)(C[C@@H](O)C[C@@H](O)[C@H](O)CC[C@@H](O)C[C@@H](O)CC(=O)O[C@H]1C)C[C@H](O)[C@H]2C(=O)O [Amphotericin B, reference compound] | 18.2 | 0.02 to 0.06 | 0.12 | 12 | – |
| CC(=O)O[C@@]1(CO)CC[C@H](C(C)C)[C@H]2C=C(C(=O)O)COC(=O)[C@@H]21 [Compound 1, (+)-(5aS,6R,9S,9aS)-9-(acetyloxy)-9-(hydroxymethyl)-1-oxo-6-(propan-2-yl)-1,3,5a,6,7,8,9,9a-octahydro-2-benzoxepine-4-carboxylic acid] | > 200 | – | 21.4 | > 200 | selectivity index (SI) (Vero cells): 9.3; toxicity to Vero cells (in words) (Vero cells; MTT): low toxicity; activity against amastigote forms of L. (V.) braziliensis (in words) [3]: active; toxicity to THP-1 cells (in words) (THP-1 cells; MTT): low toxicity |
| CC(=O)OCCCCC/C=C(/C(=O)O)[C@H](C)C(=O)O [Compound 2, (+)-6′-acetoxy-piliformic acid] | > 200 | – | 28.3 | > 200 | toxicity to Vero cells (in words) (Vero cells; MTT): low toxicity; toxicity to THP-1 cells (in words) (THP-1 cells; MTT): low toxicity |
| C=CCCC/C=C(/C(=O)O)[C@H](C)C(=O)O [Compound 3] | > 200 | – | > 200 | > 200 | activity against amastigote forms of L. (V.) braziliensis (in words) [3]: not active |
| CCCCC/C=C(/C(=O)O)[C@H](C)C(=O)O [Compound 4, (+)-piliformic acid] | > 200 | – | 78.5 | > 200 | IC50 KB cells (KB cells): 13 µg/mL (≈ 60.7 µM); activity against Plasmodium falciparum (3D7) (in words) [4]: inactive; activity against A549 cells (in words) (A549 cells): inactive; selectivity index (SI) (Vero cells): 2.5; IC50 BC-1 human breast cancer cells [5]: 5 µg/mL (≈ 23.3 µM) |
| CC(C)C1CCC2(O)COC(=O)C2C1C=C(CO)C(=O)O (stereo not shown) [Compound 5, hydroheptelidic acid] | > 200 | – | 24.8 | > 200 | toxicity to Vero cells (in words) (Vero cells; MTT): low toxicity; activity against amastigote forms of L. (V.) braziliensis (in words) [3]: showed activity; toxicity to THP-1 cells (in words) (THP-1 cells; MTT): low toxicity |
| CC(C)[C@H]1CC[C@H]2COC(=O)[C@H]2[C@@H]1/C=C(\CO)C(=O)O [Compound 6, xylaric acid D] | > 200 | – | > 200 | > 200 | activity against amastigote forms of L. (V.) braziliensis (in words) [3]: activity against L. (V.) braziliensis was lost |
| C=C1[C@@H](C)[C@H]2[C@H](Cc3ccccc3)NC(=O)[C@]23[C@H](OC(C)=O)/C=C/[C@@](C)(O)C(=O)[C@@H](C)C/C=C/[C@H]3[C@@H]1O [Compound 7, (+)-cytochalasin D] | – | – | 72.6 | – | effect on Leishmania attachment and intracellular amastigote load in macrophages (in words) [6]: reduce the attachment of Leishmania promastigotes and the intracellular amastigote load; IC50 (Vero cells): > 200 µM; IC50 (THP-1 cells; THP-1, 72 h): > 200 µM |
| N=C(N)c1ccc(OCCCCCOc2ccc(C(=N)N)cc2)cc1 [Pentamidine, pentamidine] | – | – | – | – | Log P [E] [7]: 4 |
| CC[C@H]1OC(=O)[C@H](C)[C@@H](O[C@H]2C[C@@](C)(OC)[C@@H](O)[C@H](C)O2)[C@H](C)[C@@H](O[C@@H]2O[C@H](C)C[C@H](N(C)C)[C@H]2O)[C@](C)(O)C[C@@H](C)CN(C)[C@H](C)[C@@H](O)[C@]1(C)O [azithromycin] | – | 5.7 | – | – | – |
| CC(C)[C@H]1CC[C@@]2(CO2)[C@H]2C(=O)OCC(C(=O)O)=C[C@H]12 [heptelidic acid] | – | – | – | – | activity in vivo (in words) (tumour xenographs): very modest activity in vivo |
| CCCCCCCCCCCCCCCCOP(=O)([O-])OCC[N+](C)(C)C [miltefosine] | – | 0.8 to 5.4 | – | – | – |
| NC[C@@H]1O[C@H](O[C@H]2[C@@H](O)[C@H](O[C@@H]3[C@@H](O)[C@H](N)C[C@H](N)[C@H]3O[C@H]3O[C@H](CO)[C@@H](O)[C@H](O)[C@H]3N)O[C@@H]2CO)[C@H](N)[C@@H](O)[C@@H]1O [paromomycin] | – | 234 to 344 | – | – | – |
| Meglumine antimoniate | – | 178 to 330 | – | – | – |
